Test results published in patent US12186423B2, “Brightening booster technology and brightening ampule” (MARY KAY INC., priority 2020, dated 2025).
Values joined by “and” are separate entries in the source; they are usually repeats but may differ in a detail not shown here. Equal values may be shown once.

Experiments:
B16-F1 melanocytes [1] = assay type: cell-based; conditions: mouse
Description: (§1) The endpoint of these assays are a spectrophotometric measurement of melanin production and cellular viability. B16-F1 melanocytes were cultivated to subconfluence at 37° C. in 10% CO2 in T150 tissue culture flasks in standard DMEM growth medium supplemented with 10% fetal bovine serum (Mediatech) and 1% penicillin/streptomycin. Cells in one confluent T150 tissue culture flask were trypsinized and resuspended in DMEM, and 1% of the resuspended cells were seeded in 200 μl total volume DMEM in each well of a 96-well tissue culture plate. For phenol red-free media, 200 mM L-glutamine (20 ml/L) (Mediatech) was also added to the DMEM growth medium. Active ingredients were diluted to 1% in DMEM growth medium. Once cells reached about 20% confluence, cells were treated with any one of the active ingredients, combination of ingredients, or compositions having said combinations disclosed in the specification by replacing the DMEM growth media with 200 μl DMEM growth media containing diluted active ingredients. Cells were also treated with 1 mM kojic acid as a positive control. Cells were then incubated for 5-6 days at 37° C. in 10% CO2. Following incubation, melanin secretion was measured by absorbance of the whole plate at 405 nm (OD 405) (whole plate reading). […] Percent viability of the cell samples was calculated using the following formula: % Viability=(Mean OD 490 of Sample/Mean OD 490 of Control). […] Percent change in pigmentation of the cell samples was calculated using the following formula: % Change=% pigmentation of Sample−% pigmentation of Control.

B16-F1 melanocytes [2] = assay: B16 pigmentation assay (melanin production, absorbance at 405 nm); assay type: cell-based, mouse; conditions: for OD 405 (single readings of triplicate): active ingredients diluted to 1% in DMEM, whole plate reading; for OD 405 (single readings of triplicate) / OD 405 AVG: kojic acid 1 mM, 5-6 days; for OD 405 AVG: average absorbance at 405 nm of triplicate, actives diluted to 1%; for % INHIBITION: vs untreated cells; for % INHIBITION / % Inhibition (change in pigmentation): negative value = less pigmentation; for Melanogenesis (OD 405, single readings of triplicate): alone and combined, kojic acid positive control; for Melanogenesis AVG (OD 405): average of triplicate; for % Inhibition (change in pigmentation): viability-corrected, vs untreated
Description: as §1, with “Melanogenesis is the process by which melanocytes produce melanin, a naturally produced pigment that imparts color to skin, hair, and eyes. Inhibiting melanogenesis is beneficial to prevent skin darkening and lighten dark spots associated with aging. […] The” for “The”, “Active ingredients were diluted to 1% in DMEM growth medium.” left out

[3] = second experiment, 2% niacinamide, 2% navy bean, 0.2% ferulic acid

| Structure (SMILES) | % Viability (B16-F1 melanocytes [1]) [%] | Viability AVG (OD 490) (B16-F1 melanocytes [1]) | OD 405 (single readings of triplicate) (B16-F1 melanocytes [2]; first experiment, listed as CONTROL) | OD 405 AVG (B16-F1 melanocytes [2]; first experiment) | % INHIBITION (B16-F1 melanocytes [2]; first experiment) [%] | Melanogenesis (OD 405, single readings of triplicate) (B16-F1 melanocytes [2]; [3]) | Melanogenesis AVG (OD 405) (B16-F1 melanocytes [2]; [3]) | % Inhibition (change in pigmentation) (B16-F1 melanocytes [2]; second experiment) [%] | OD 405 (single readings of triplicate) (B16-F1 melanocytes [2]; first experiment) | effect on pigmentation / melanin secretion (in words) (B16-F1 melanocytes [2]; first experiment) | inhibited pigmentation / melanin secretion (B16-F1 melanocytes [2]; second experiment, 2% navy bean, 0.2% ferulic acid, 2% niacinamide) [%] |
| --- | --- | --- | --- | --- | --- | --- | --- | --- | --- | --- | --- |
| O=c1cc(CO)occ1O [Kojic Acid, kojic acid] | 98.1 | 1.687 | 0.31 and 0.333 and 0.34 | 0.328 | −55.979 | 0.31 and 0.333 and 0.34 | 0.328 | −55.14 | – | – | – |
| NC(=O)c1cccnc1 [Niacinamide (B3), Niacinamide] | 100 | 1.725 | – | 0.774 | 3.941 | 0.775 and 0.766 and 0.78 | 0.774 | 3.58 | 0.775 and 0.766 and 0.78 | – | – |
| COc1cc(/C=C/C(=O)O)ccc1O [Ferulic Acid (FA), Ferulic acid] | 98.4 | 1.692 | – | 0.381 | −48.858 | 0.367 and 0.384 and 0.391 | 0.381 | −48.03 | 0.367 and 0.384 and 0.391 | inhibited pigmentation to some degree | 48.03 |
